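How tested: cells in 96-well plates exposed to compound for 48 hours at five concentrations. Definition used: TGI = concentration required for complete inhibition of growth.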
Tests used:
Experiment in all cases: NCI-60 cell line screen, 48 h
[1] = system: U251 CNS
[2] = system: DU-145 prostate
[3] = system: HOP-92 NSCLC
[4] = system: HCT-15 colon
[5] = system: SNB-19 CNS
[6] = system: KM12 colon
[7] = system: HS 578T breast
[8] = system: MCF7 breast
[9] = system: IGROV1 ovarian
[10] = system: MALME-3M melanoma

O=P(c1ccccc1)(c1ccccc1)N1O[C@@H](c2ccccc2)C=C[C@H]1c1ccccc1
TGI [1]: 16.9 µM | TGI [2]: 26.3 µM | TGI [3]: 25.6 µM | TGI [4]: 26.3 µM | TGI [5]: 30 µM | TGI [6]: 44.4 µM | TGI [7]: 44.6 µM | TGI [8]: 12.6 µM | TGI [9]: 28.9 µM | TGI [10]: 29.2 µM

CSc1c(C#N)c(N)n2c1C(=O)N(c1ccccc1)C2=S
TGI [1]: > 100 µM | TGI [2]: > 100 µM | TGI [3]: > 100 µM | TGI [4]: > 100 µM | TGI [5]: > 100 µM | TGI [6]: > 100 µM | TGI [7]: 80.7 µM | TGI [8]: > 100 µM | TGI [9]: > 100 µM | TGI [10]: > 100 µM

CN(C)CCCN1C(=S)N(CCCN(C)C)c2c3cc(O)ccc3nc3c([N+](=O)[O-])ccc1c23
TGI [1]: 28 µM | TGI [2]: 16.5 µM | TGI [3]: 16.1 µM | TGI [4]: 12.6 µM | TGI [5]: 13.9 µM | TGI [6]: 9.51 µM | TGI [7]: 24.4 µM | TGI [8]: 6.77 µM | TGI [9]: 7 µM | TGI [10]: 22.2 µM

CC1(C)N=C(C(N)=O)c2ncn(CCCO)c2N1
TGI [1]: > 100 µM | TGI [2]: > 100 µM | TGI [3]: > 100 µM | TGI [4]: > 100 µM | TGI [5]: > 100 µM | TGI [6]: > 100 µM | TGI [7]: > 100 µM | TGI [8]: > 100 µM | TGI [9]: > 100 µM | TGI [10]: > 100 µM

Cc1c(S(=O)(=O)/N=C(\N)Nc2ccc(Cl)cc2)sc2ccc(Cl)cc12
TGI [1]: 30.3 µM | TGI [2]: 36.2 µM | TGI [3]: 42.2 µM | TGI [4]: 44.6 µM | TGI [5]: 57.4 µM | TGI [6]: > 100 µM | TGI [7]: 59 µM | TGI [8]: 35.8 µM | TGI [9]: 31.9 µM | TGI [10]: 39.8 µM

CCCn1c(CN(Cc2nc3ccccc3n2CCC)Cc2nc3ccccc3n2CCC)nc2ccccc21
TGI [1]: > 100 µM | TGI [2]: > 88.5 µM | TGI [3]: 13.3 µM | TGI [4]: > 43.4 µM | TGI [5]: > 100 µM | TGI [6]: 21.8 µM | TGI [7]: > 95.2 µM | TGI [8]: > 29.2 µM | TGI [9]: 16.7 µM | TGI [10]: 23.3 µM

C1=CC2=CC=CC3c4nc5ccc6ccccc6c5nc4C(=C1)C23 (stereo not given)
TGI [1]: > 100 µM | TGI [2]: > 100 µM | TGI [3]: > 100 µM | TGI [4]: > 100 µM | TGI [5]: > 100 µM | TGI [6]: > 100 µM | TGI [7]: > 100 µM | TGI [8]: > 100 µM | TGI [9]: > 100 µM | TGI [10]: > 100 µM

CCCNC(=O)CCC(C)[C@H]1CCC2C3C(C[C@H](OC(C)=O)[C@@]21C)[C@@]1(C)CCC2(C[C@H]1C[C@H]3OC(C)=O)OOC1(CCC(C)CC1)OO2 (stereo not given in full)
TGI [1]: 30.6 µM | TGI [2]: 21.2 µM | TGI [3]: 1.98 µM | TGI [4]: > 100 µM | TGI [5]: > 100 µM | TGI [6]: 20.2 µM | TGI [7]: > 100 µM | TGI [8]: > 100 µM | TGI [9]: 4.36 µM | TGI [10]: 40.3 µM

CO[C@]12CC(=O)C3(C(C[C@H]4CC5CC=C6C[C@@H](OC(C)=O)CC[C@]6(OC(C)=O)C5C[C@@]43C)C1)C1C[C@H]3[C@@H]4CC=C5C[C@@H](OC(C)=O)CC[C@]5(OC(C)=O)[C@H]4CC[C@]3(C)C12 (stereo not given in full)
TGI [1]: > 100 µM | TGI [2]: 41.4 µM | TGI [3]: > 100 µM | TGI [4]: > 100 µM | TGI [5]: 63.6 µM | TGI [6]: 54.3 µM | TGI [7]: 88.9 µM | TGI [8]: > 100 µM | TGI [9]: 42.8 µM | TGI [10]: 35 µM

O=C1CN2C(c3ccccc3)=NN(c3ccc([N+](=O)[O-])cc3)C2(c2ccccc2)c2cc(Cl)ccc2N1CC1CC1 (stereo not given)
TGI [1]: > 100 µM | TGI [2]: > 100 µM | TGI [3]: > 100 µM | TGI [4]: > 100 µM | TGI [5]: > 100 µM | TGI [6]: > 100 µM | TGI [7]: > 100 µM | TGI [8]: > 100 µM | TGI [9]: > 100 µM | TGI [10]: > 100 µM

CN(C)c1nc(=NCc2ccccc2)ss1
TGI [1]: > 10 µM | TGI [2]: > 10 µM | TGI [3]: > 10 µM | TGI [4]: > 10 µM | TGI [5]: > 10 µM | TGI [6]: > 10 µM | TGI [7]: > 10 µM | TGI [8]: > 10 µM | TGI [9]: > 10 µM | TGI [10]: > 10 µM

Cc1ccccc1C(O)(c1nccn1C)c1nccn1C
TGI [1]: > 100 µM | TGI [2]: > 100 µM | TGI [3]: > 100 µM | TGI [4]: > 100 µM | TGI [5]: > 100 µM | TGI [6]: > 100 µM | TGI [7]: > 100 µM | TGI [8]: > 100 µM | TGI [9]: > 100 µM | TGI [10]: > 100 µM

C/C(CC1C2CCCC1C2)=N\NC(N)=O (stereo not given)
TGI [1]: > 100 µM | TGI [2]: > 100 µM | TGI [3]: > 100 µM | TGI [4]: > 100 µM | TGI [5]: > 100 µM | TGI [6]: > 100 µM | TGI [7]: > 100 µM | TGI [8]: > 100 µM | TGI [9]: > 100 µM | TGI [10]: > 100 µM

N#CCCN(CCC#N)c1ccc(/C=C2\N=C(c3ccccc3)N(c3ccc(Cl)cc3)C2=O)cc1
TGI [1]: > 100 µM | TGI [2]: > 100 µM | TGI [3]: > 100 µM | TGI [4]: > 100 µM | TGI [5]: > 100 µM | TGI [6]: > 100 µM | TGI [7]: 86.8 µM | TGI [8]: > 100 µM | TGI [9]: > 100 µM | TGI [10]: > 100 µM

O=c1cc(N=P(c2ccccc2)(c2ccccc2)c2ccccc2)n(-c2ccccc2)c(=O)n1-c1ccccc1
TGI [1]: 29.2 µM | TGI [2]: > 100 µM | TGI [3]: 47.5 µM | TGI [4]: > 100 µM | TGI [5]: 63.5 µM | TGI [6]: > 100 µM | TGI [7]: 58 µM | TGI [8]: 34.3 µM | TGI [9]: 58.8 µM | TGI [10]: 33.5 µM

CC(C)/C(Cl)=N\OC(=O)Nc1ccc(C#N)cc1
TGI [1]: 31.9 µM | TGI [2]: 32.2 µM | TGI [3]: 2.98 µM | TGI [4]: 22.6 µM | TGI [5]: 33.7 µM | TGI [6]: 29.9 µM | TGI [7]: 39.8 µM | TGI [8]: 22.4 µM | TGI [9]: 32.7 µM | TGI [10]: 6.81 µM

CCOc1cc(C2CC(c3ccc(NS(=O)(=O)c4cc([N+](=O)[O-])ccc4C)cc3)=NN2C(=O)c2ccccc2)ccc1O (stereo not given)
TGI [1]: > 100 µM | TGI [2]: > 100 µM | TGI [3]: 47.6 µM | TGI [4]: > 100 µM | TGI [5]: > 100 µM | TGI [6]: > 100 µM | TGI [7]: > 100 µM | TGI [8]: > 100 µM | TGI [9]: > 100 µM | TGI [10]: 61.4 µM
